Assay results from ChEMBL document CHEMBL1146128, “Azolylchromans as a novel scaffold for anticonvulsant activity” (2006).

Assays:
Details in all cases: route intraperitoneal
Mus musculus [1] = assay: Mortality in PTZ-induced lethal convulsions in mice at 5 mg/kg, ip; type: functional
Mus musculus [2] = assay: Hind limb tonic extension in PTZ-induced lethal convulsions in mice at 5 mg/kg, ip; type: functional, Hindlimb
Mus musculus [3] = assay: Seizure latency in PTZ-induced lethal convulsions in mice at 5 mg/kg, ip; type: functional
Mus musculus [4] = assay: Seizure latency in PTZ-induced lethal convulsions in mice at 150 mg/kg, ip; type: functional
Mus musculus [5] = assay: Mortality in PTZ-induced lethal convulsions in mice at 150 mg/kg, ip; type: functional
Mus musculus [6] = assay: Hind limb tonic extension in PTZ-induced lethal convulsions in mice at 150 mg/kg, ip; type: functional, Hindlimb

**Q.** `O/N=C1/c2ccc(Cl)cc2OCC1n1cnnc1` (configuration not stated) was tested. Which Activity (Mus musculus [1]) did it give?
**A.** Its Activity is 100%.

**Q.** And the Activity (Mus musculus [2])?
**A.** Its Activity is 100%.

**Q.** What about the Activity (Mus musculus [3]) of the same molecule?
**A.** The Activity was 2.5 min.

**Q.** Which Activity (Mus musculus [1]) does the source give for `C[C@@H]1Oc2cc(Cl)ccc2C(=O)[C@H]1n1ccnc1` (relative stereo) here?
**A.** The Activity was 67%.

**Q.** What about the Activity (Mus musculus [2]) of the same molecule?
**A.** Its Activity is 67%.

**Q.** What about the Activity (Mus musculus [3]) of the same molecule?
**A.** The Activity was 18.6 min.

**Q.** Which results are given for `C[C@H]1Oc2ccccc2C(=O)[C@@H]1n1cnnc1` (relative stereo)?
**A.** Activity (Mus musculus [1]): 100%; Activity (Mus musculus [2]): 100%; Activity (Mus musculus [3]): 7.17 min

**Q.** `CCCC(CCC)C(=O)[O-].[Na+]` [VALPROATE SODIUM] was tested. Which Activity (Mus musculus [4]) did it give?
**A.** The Activity was 15.65 min.

**Q.** And the Activity (Mus musculus [5])?
**A.** The Activity was 0%.

**Q.** And the Activity (Mus musculus [6])?
**A.** Its Activity is 0%.

**Q.** `O/N=C1\c2ccccc2OCC1[n+]1cnc[nH]1` (configuration not stated) was tested. Which Activity (Mus musculus [1]) did it give?
**A.** The Activity was 100%.

**Q.** What about the Activity (Mus musculus [2]) of the same molecule?
**A.** Its Activity is 100%.

**Q.** What about the Activity (Mus musculus [3]) of the same molecule?
**A.** Its Activity is 7.17 min.

**Q.** With `O/N=C1\c2ccccc2OCC1n1ccnc1` (configuration not stated) as the molecule, how does the Activity (Mus musculus [1]) read?
**A.** Its Activity is 100%.

**Q.** And the Activity (Mus musculus [2])?
**A.** The Activity was 100%.

**Q.** And the Activity (Mus musculus [3])?
**A.** The Activity was 5.5 min.

**Q.** With `C[C@@H]1Oc2ccccc2C(=O)[C@H]1n1ccnc1` (relative stereo) as the molecule, how does the Activity (Mus musculus [1]) read?
**A.** The Activity was 67%.

**Q.** What about the Activity (Mus musculus [2]) of the same molecule?
**A.** Its Activity is 100%.

**Q.** What about the Activity (Mus musculus [3]) of the same molecule?
**A.** Its Activity is 17 min.

**Q.** Which results are given for `O/N=C1/c2ccccc2OCC1n1cncn1` (configuration not stated)?
**A.** Activity (Mus musculus [1]): 100%; Activity (Mus musculus [2]): 100%; Activity (Mus musculus [3]): 4 min

**Q.** For `O=c1c(-n2cnnc2)coc2ccccc12`, which Activity (Mus musculus [1]) is on record?
**A.** The Activity was 100%.

**Q.** And the Activity (Mus musculus [2])?
**A.** The Activity was 100%.

**Q.** And the Activity (Mus musculus [3])?
**A.** The Activity was 10 min.

**Q.** What does the source list for `O=C1c2ccc(Cl)cc2OCC1n1ccnc1` (configuration not stated)?
**A.** Activity (Mus musculus [1]): 0%; Activity (Mus musculus [2]): 0%; Activity (Mus musculus [3]): 23.5 min

**Q.** What does the source list for `C[C@H]1Oc2cc(Cl)ccc2C(=O)[C@@H]1n1cnnc1` (relative stereo)?
**A.** Activity (Mus musculus [1]): 83%; Activity (Mus musculus [2]): 83%; Activity (Mus musculus [3]): 10 min

**Q.** For `O=C1c2ccccc2OCC1n1cncn1` (configuration not stated), which Activity (Mus musculus [1]) is on record?
**A.** The Activity was 17%.

**Q.** And the Activity (Mus musculus [2])?
**A.** Its Activity is 17%.

**Q.** And the Activity (Mus musculus [3])?
**A.** Its Activity is 22 min.

**Q.** Which results are given for `O/N=C1/c2ccccc2OCC1n1ccnc1` (configuration not stated)?
**A.** Activity (Mus musculus [1]): 0%; Activity (Mus musculus [2]): 83%; Activity (Mus musculus [3]): 7.8 min

**Q.** Which results are given for `Cc1oc2ccccc2c(=O)c1-n1cnnc1`?
**A.** Activity (Mus musculus [1]): 100%; Activity (Mus musculus [2]): 100%; Activity (Mus musculus [3]): 5 min

**Q.** With `O/N=C1/c2ccc(Cl)cc2OCC1n1ccnc1` (configuration not stated) as the molecule, how does the Activity (Mus musculus [1]) read?
**A.** The Activity was 100%.

**Q.** What about the Activity (Mus musculus [2]) of the same molecule?
**A.** The Activity was 100%.

**Q.** What about the Activity (Mus musculus [3]) of the same molecule?
**A.** The Activity was 5.83 min.

**Q.** `O=C1c2ccccc2OCC1n1ccnc1` (configuration not stated) was tested. Which Activity (Mus musculus [1]) did it give?
**A.** Its Activity is 83%.

**Q.** What about the Activity (Mus musculus [2]) of the same molecule?
**A.** The Activity was 83%.

**Q.** What about the Activity (Mus musculus [3]) of the same molecule?
**A.** The Activity was 2 min.

**Q.** With `O=C1c2ccc(Cl)cc2OCC1n1cncn1` (configuration not stated) as the molecule, how does the Activity (Mus musculus [1]) read?
**A.** Its Activity is 100%.

**Q.** What about the Activity (Mus musculus [2]) of the same molecule?
**A.** The Activity was 100%.

**Q.** What about the Activity (Mus musculus [3]) of the same molecule?
**A.** Its Activity is 2.5 min.

**Q.** How did the Activity (Mus musculus [1]) turn out when `O=C1c2ccc(Cl)cc2OCC1n1cnnc1` (configuration not stated) was run?
**A.** The Activity was 83%.

**Q.** And the Activity (Mus musculus [2])?
**A.** The Activity was 100%.

**Q.** And the Activity (Mus musculus [3])?
**A.** The Activity was 4.67 min.

**Q.** Which results are given for `O=C1c2ccccc2OCC1n1cnnc1` (configuration not stated)?
**A.** Activity (Mus musculus [1]): 100%; Activity (Mus musculus [2]): 100%; Activity (Mus musculus [3]): 2.83 min
